Test results: US20140256666A1, “ANTIBIOTIC CONJUGATES WITH NONSTEROIDAL ANTI-INFLAMMATORY DRUGS” (Allergan, Inc., priority 2013, published 2014)

System: Human Corneal Epithelial Cells
Assay: In vitro corneal permeability, cellular uptake and metabolic stability in human corneal epithelial cells
Type: in vitro ADME
Conditions: two hour incubation with Human Corneal Epithelial Cells, 50 μM final concentration
Description: Clonetics® human corneal epithelial cells (HCEC) were purchased from Lonza Walkersville, Inc. (Walkersville, Md.) pre-seeded on Costar Transwell™ filters in a 24-well plate. Upon receipt HCEC cells were cultured overnight in a 37° C. incubator ([…], 5% CO2) in media provided by the vendor. Permeability studies were performed within 24 hours of receipt. Dosing solutions 100 μM test article (i.e. ester linked hybrids) were prepared in Lonza's proprietary media by diluting a 50 mM stock solution of the test article in dimethyl sulfoxide. The final percentage of solvent in the incubation was less than 1.0% to prevent inhibition of enzymatic activity or effects on the cell membrane. Transepithelial electrical resistance (TEER) was measured for all wells using a voltohmmeter with STX-2 electrodes (World Precision Instruments Inc., Sarasota, Fla.) after adding 100 μL pre-warmed (37° C.) media to the apical compartment. […] A final TEER value was measured and recorded for all wells.
To evaluate human corneal epithelial cell integrity incubations were conducted using 2 μCi/mL ^3H-mannitol for the same 2 hour incubation period with aliquots taken from the basolateral compartment. ^3H-Mannitol samples were analyzed using liquid scintillation counting. […]

COc1c(N2CCN(C(=O)OCOC(=O)C(C)c3ccc(-c4ccccc4)c(F)c3)C(C)C2)c(F)cc2c(=O)c(C(=O)O)cn(C3CC3)c12 (stereo not shown) [Compound 16, 1-cyclopropyl-6-fluoro-7-{4-[({[2-(2-fluorobiphenyl-4-yl)propanoyl]oxy}methoxy)carbonyl]-3-methylpiperazin-1-yl}-8-methoxy-4-oxo-1,4-dihydroquinoline-3-carboxylic acid]
cellular uptake of hybrid (parent) and hydrolyzed metabolites (FIG. 1): penetrates into human corneal epithelial cells and is enzymatically hydrolyzed to the individual antibiotic and NSAID
